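Compound exposure: 48 hours, 5 concentrations, 96-well plates. The concentration for 50% growth inhibition is given as GI50.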 Active and inactive are the calls of the source. No stated cut-off is given here; in the data, active = GI50 up to about 1.1 µM and inactive = higher.
Columns and labels:
Experiment in all cases: DTP human tumour cell line panel, 48 h
OVCAR-5 = tested on: OVCAR-5
DU-145 = tested on: DU-145
OVCAR-3 = tested on: OVCAR-3
NCI-H460 = tested on: NCI-H460
Malme-3M = tested on: Malme-3M
T47D = tested on: T47D
NCI-H522 = tested on: NCI-H522
SF-268 = tested on: SF-268
IGROV-1 = tested on: IGROV-1
SNB-75 = tested on: SNB-75
U-251 = tested on: U-251
HOP-92 = tested on: HOP-92
Hs-578T = tested on: Hs-578T
EKVX = tested on: EKVX
HOP-62 = tested on: HOP-62
SF-295 = tested on: SF-295
M14 = tested on: M14
UO-31 = tested on: UO-31
SK-MEL-2 = tested on: SK-MEL-2
MDA-N = tested on: MDA-N

SMILES	GI50 (OVCAR-5)	GI50 (DU-145)	GI50 (OVCAR-3)	GI50 (NCI-H460)	GI50 (Malme-3M)	GI50 (T47D)	GI50 (NCI-H522)	GI50 (SF-268)	GI50 (IGROV-1)	GI50 (SNB-75)	GI50 (U-251)	GI50 (HOP-92)	GI50 (Hs-578T)	GI50 (EKVX)	GI50 (HOP-62)	GI50 (SF-295)	GI50 (M14)	GI50 (UO-31)	GI50 (SK-MEL-2)	GI50 (MDA-N)
O=C(/C=C/c1cc(O)c(O)cc1O)OCCc1ccccc1	> 41.9 µM (inactive)	> 52.6 µM (inactive)	10.3 µM (inactive)	34.5 µM (inactive)	13.6 µM (inactive)	4.4 µM (inactive)	2.28 µM (inactive)	19 µM (inactive)	23.1 µM (inactive)	56 µM (inactive)	27.7 µM (inactive)	7.6 µM (inactive)	39.5 µM (inactive)	41.4 µM (inactive)	31.1 µM (inactive)	29.4 µM (inactive)	14.9 µM (inactive)	10.3 µM (inactive)	20.8 µM (inactive)	13.2 µM (inactive)
CCCCc1c(N(C)C)c(OC(C)=O)c(-c2cn(C)c3ccccc23)oc1=O	31.6 µM (inactive)	54.6 µM (inactive)	25.9 µM (inactive)	27 µM (inactive)	24.8 µM (inactive)	29.6 µM (inactive)	20.9 µM (inactive)	29.3 µM (inactive)		25.1 µM (inactive)	22 µM (inactive)	< 0.01 µM (active)	43 µM (inactive)	26.1 µM (inactive)	19.8 µM (inactive)	25.5 µM (inactive)	16.8 µM (inactive)	20.8 µM (inactive)	18.7 µM (inactive)	18.1 µM (inactive)
COc1cc2c(cc1OC)C1C(O)C(OC)C=C3CC[N+](C)(C2)C31 (stereo unspecified)	> 100 µM (inactive)	> 100 µM (inactive)	> 100 µM (inactive)	> 100 µM (inactive)	> 100 µM (inactive)	> 100 µM (inactive)	> 100 µM (inactive)	> 100 µM (inactive)	> 100 µM (inactive)	> 100 µM (inactive)	> 100 µM (inactive)	> 100 µM (inactive)	> 100 µM (inactive)	> 100 µM (inactive)	> 100 µM (inactive)	> 100 µM (inactive)	> 100 µM (inactive)	> 100 µM (inactive)	> 100 µM (inactive)	> 100 µM (inactive)
COc1cc(C2c3cc4c(cc3OC(N3CCOCC3)C2C)OCO4)cc(OC)c1OC (stereo unspecified)	3.68 µM (inactive)	0.368 µM (active)	0.589 µM (active)	1.34 µM (inactive)	3.79 µM (inactive)	0.323 µM (active)	0.614 µM (active)	10.5 µM (inactive)	1.31 µM (inactive)	5.19 µM (inactive)	0.893 µM (active)	0.7 µM (active)	0.226 µM (active)	15.8 µM (inactive)	3.63 µM (inactive)	0.519 µM (active)	0.708 µM (active)	1.86 µM (inactive)	2.02 µM (inactive)	0.148 µM (active)
O=C(O)C1C2CCC(C2)C1c1ccccc1 (stereo unspecified)	> 100 µM (inactive)	> 100 µM (inactive)	> 100 µM (inactive)	> 100 µM (inactive)	> 100 µM (inactive)	> 100 µM (inactive)	> 100 µM (inactive)	> 100 µM (inactive)		> 100 µM (inactive)	> 100 µM (inactive)	> 100 µM (inactive)	> 100 µM (inactive)	> 100 µM (inactive)	> 100 µM (inactive)	> 100 µM (inactive)	> 100 µM (inactive)	> 100 µM (inactive)	55.5 µM (inactive)	> 100 µM (inactive)
N#CC12C(=O)N3C(=NC(c4ccccc4)NC3c3ccccc3)C1(C#N)C(c1ccccc1)NC1=C2CCCC1 (stereo unspecified)	> 100 µM (inactive)	> 100 µM (inactive)	> 100 µM (inactive)	> 100 µM (inactive)	> 100 µM (inactive)	> 100 µM (inactive)	> 100 µM (inactive)	> 100 µM (inactive)	> 100 µM (inactive)	> 100 µM (inactive)	> 100 µM (inactive)	> 100 µM (inactive)	> 100 µM (inactive)	> 100 µM (inactive)	> 100 µM (inactive)	> 100 µM (inactive)	> 100 µM (inactive)	> 100 µM (inactive)	> 100 µM (inactive)	> 100 µM (inactive)
CC(C)(C)c1cc[n+](C[n+]2ccc(C(C)(C)C)cc2)cc1	> 100 µM (inactive)	> 100 µM (inactive)	> 100 µM (inactive)	> 100 µM (inactive)	> 100 µM (inactive)	> 100 µM (inactive)	> 100 µM (inactive)	> 100 µM (inactive)	> 100 µM (inactive)	> 100 µM (inactive)	> 100 µM (inactive)	> 100 µM (inactive)	> 100 µM (inactive)	> 100 µM (inactive)	> 100 µM (inactive)	> 100 µM (inactive)	> 100 µM (inactive)	> 100 µM (inactive)	> 100 µM (inactive)	> 100 µM (inactive)
O=C1Nc2ccccc2/C1=C1\C(=O)Nc2ccccc21 [ISOINDIGO]	3.48 µM (inactive)	12.9 µM (inactive)	19.3 µM (inactive)	21.6 µM (inactive)	13.2 µM (inactive)	1.35 µM (inactive)	10.3 µM (inactive)	31.2 µM (inactive)	10.3 µM (inactive)	14.1 µM (inactive)	11.4 µM (inactive)	20.6 µM (inactive)	49.2 µM (inactive)	20.7 µM (inactive)	25 µM (inactive)	60.3 µM (inactive)	32.1 µM (inactive)	13.6 µM (inactive)	18.5 µM (inactive)	24.5 µM (inactive)
COc1ccccc1Cn1nc(OC)c2cc([N+](=O)[O-])ccc21	> 100 µM (inactive)	> 100 µM (inactive)	> 100 µM (inactive)	66.7 µM (inactive)	> 87.5 µM (inactive)	> 100 µM (inactive)	17.9 µM (inactive)	13.1 µM (inactive)	34.8 µM (inactive)	4.16 µM (inactive)	12 µM (inactive)	0.383 µM (active)	3.61 µM (inactive)	35.6 µM (inactive)	4.48 µM (inactive)	6.3 µM (inactive)	> 100 µM (inactive)	> 35.1 µM (inactive)	19.7 µM (inactive)	> 100 µM (inactive)
CC(Oc1ccccc1Cl)C(=O)NN1C(=O)CC(=O)N(c2ccc(Cl)cc2)C1=S (stereo unspecified)	75.3 µM (inactive)	34.6 µM (inactive)	38.4 µM (inactive)	39.3 µM (inactive)	> 100 µM (inactive)	34.6 µM (inactive)	23.3 µM (inactive)	67.1 µM (inactive)	50.1 µM (inactive)	47.5 µM (inactive)	39.4 µM (inactive)	22.6 µM (inactive)	49.8 µM (inactive)	45.4 µM (inactive)	46.3 µM (inactive)	44.1 µM (inactive)	47.5 µM (inactive)	37.1 µM (inactive)	27.9 µM (inactive)	37.6 µM (inactive)
O=c1ccc2c(Cl)cccc2o1	> 100 µM (inactive)	> 100 µM (inactive)	> 100 µM (inactive)	> 100 µM (inactive)	> 100 µM (inactive)	46.7 µM (inactive)	> 100 µM (inactive)	> 100 µM (inactive)	> 100 µM (inactive)	> 100 µM (inactive)	> 100 µM (inactive)	> 100 µM (inactive)	75.5 µM (inactive)	58.3 µM (inactive)	> 100 µM (inactive)	> 100 µM (inactive)	> 100 µM (inactive)	> 100 µM (inactive)	> 100 µM (inactive)	> 100 µM (inactive)
COC1(O)C(=O)c2ccccc2OC1(OC)c1ccccc1 (stereo unspecified)	> 100 µM (inactive)	> 100 µM (inactive)	> 100 µM (inactive)	40.4 µM (inactive)	> 100 µM (inactive)	> 100 µM (inactive)	> 100 µM (inactive)	> 100 µM (inactive)	> 100 µM (inactive)	> 100 µM (inactive)	> 100 µM (inactive)	> 100 µM (inactive)	> 100 µM (inactive)	> 100 µM (inactive)	> 100 µM (inactive)	> 100 µM (inactive)	> 100 µM (inactive)		> 100 µM (inactive)	> 100 µM (inactive)
O=C(c1cc2c(c3ccccc13)NC1(CCCCC1)N=C2C(F)(F)F)C(F)(F)F	8.83 µM (inactive)	5.35 µM (inactive)	2.85 µM (inactive)	3.27 µM (inactive)	5.27 µM (inactive)	2.93 µM (inactive)	2.65 µM (inactive)	5.85 µM (inactive)	4.93 µM (inactive)	4.7 µM (inactive)	3.78 µM (inactive)	3.69 µM (inactive)	6.32 µM (inactive)	4.82 µM (inactive)	40.5 µM (inactive)	3.2 µM (inactive)	6.17 µM (inactive)	3.62 µM (inactive)	2.44 µM (inactive)	3.72 µM (inactive)
O=C(O)CN1CCN2CCCCCCCCN(CC1)CCN(CC(=O)O)CC2	> 100 µM (inactive)	> 100 µM (inactive)	> 100 µM (inactive)	> 100 µM (inactive)	> 100 µM (inactive)	> 100 µM (inactive)	64.6 µM (inactive)		> 100 µM (inactive)	21.9 µM (inactive)	> 100 µM (inactive)	> 100 µM (inactive)	> 100 µM (inactive)	> 100 µM (inactive)	> 100 µM (inactive)	> 100 µM (inactive)	> 100 µM (inactive)	> 100 µM (inactive)	> 100 µM (inactive)	> 100 µM (inactive)

From ChEMBL document CHEMBL1201862, “PubChem BioAssay data set” (2004)
